# Laboratory results as given in patent US6703020B1 (Board of Regents, The University of Texas System, priority 1999, dated 2004).
# How the values were obtained:
# [1] = system: human NCI-H358 NSCLC tumors; test: Localization of 2C3-GUS in SCID mice bearing NCI-H358 tumors; type: in vivo, mouse
# [2] = Blood clearance of radioiodinated 2C3-GUS in mice; type: in vivo, mouse; conditions: intravenous
# Source text: 2C3-GUS was radioiodinated with ^125I to a specific activity of 5×10^6 cpm/μg.
# VEGFR2 (KDR/Fc) = test: Coprecipitation assay, VEGF with VEGFR2/Fc; type: binding; conditions: 40 ng VEGF, 200 ng receptor/Fc
# Method: 200 ng of soluble forms of VEGFR1 (Flt-1/Fc) or VEGFR2 (KDR/Fc, R&D Systems, Minneapolis, Minn.) were added for a total volume of 50 μl and incubated for 2 hrs. The receptor/Fc constructs were precipitated using Protein A-sepharose beads and the resulting precipitate was washed 4 times with binding buffer.
# Reducing sample buffer was added to the pellet and supernatant of each reaction and both were analyzed by 12% SDS-PAGE and transferred to PVDF membranes. […] The soluble receptor/Fc constructs were also detected by using peroxidase-conjugated goat anti-human Fc (Kirkegaard & Perry Laboratories, Inc.)
# The receptor/Fc constructs were precipitated by incubation with Protein A sepharose beads. The precipitate was washed and resuspended in reducing sample buffer and separated by 12% SDS-PAGE and transferred to PVDF.
# [3] = molecular target: T1, guinea pig VEGF in line 10 guinea pig tumor sections (Cavia porcellus, UniProt P26617); test: Immunohistochemistry on guinea pig line 10 tumor sections; type: binding; design: key: −, negative; +/−, very weak; 1+, weak; 2+, moderate; 3+, strong; 4+, very strong; conditions: acetone fixed frozen sections; 2C3 and 12D7 at 20 μg/ml, others 5-10 μg/ml
# T1 construct: from tissue; host or cells: frozen sections of line 10 hepatocellular carcinoma grown in strain 2 guinea pigs
# T1 sequence (P26617 1-164): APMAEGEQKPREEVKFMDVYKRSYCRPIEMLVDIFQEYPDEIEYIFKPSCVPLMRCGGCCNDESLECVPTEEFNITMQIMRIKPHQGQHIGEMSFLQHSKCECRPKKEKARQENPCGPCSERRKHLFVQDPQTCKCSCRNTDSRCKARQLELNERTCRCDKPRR
# Method: (§1) Guinea pig line 10 hepatocellular carcinoma tumor cells (obtained from Dr. Ronald Neuman, NIH, Bethesda, Md.) were grown in strain 2 guinea pigs (NCI, Bethesda, Md.). The human tumors NCI-H358 non-small cell lung carcinoma (NSCLC), NCI-H460 NSCLC (both obtained from Dr. Adi Gazdar, UT Southwestern, Dallas, Tex.), HT29 colon adenocarcinoma (American Type Culture Collection), and L540CY Hodgkin's lymphoma (obtained from Professor V. Diehl, Cologne, Germany) were grown as xenografts in CB17 SCID mice (Charles River, Wilmington, Mass.).
# (§2) Tumors were snap frozen in liquid nitrogen and stored at −70° C. Frozen samples of tumor specimens from patients were obtained from the National Cancer Institute Cooperative Human Tissue Network (Southern Division, Birmingham, Ala.). Immununohistochemistry was performed as described by Burrows et al. (1995).
# [4] = system: A673 rhabdomyosarcoma and LS174T colon adenocarcinoma tumors; test: Treatment of mice with established A673 and LS174T tumors; type: in vivo, mouse
# VEGFR1 (FLT-1) = test: ELISA of VEGF binding to VEGFR1-coated wells
# NCI-H358 NSCLC tumors = test: In vivo tumor therapy of established NCI-H358 xenografts; design: species or system mouse
# Method: (§3) Male nu/nu mice bearing subcutaneous NCI-H358 tumors or HT1080 fibrosarcoma 200-400 mm^3 in size were injected i.p. with test or control antibodies. The NCI-H358 bearing mice were treated with 100 μg of antibodies per injection three times a week during the first week and twice a week during the second and third week. The mice were then switched to 50 μg per injection every five days. The HT1080 bearing mice were treated with 100 μg of the indicated antibody or saline every other day throughout the duration of the study. In both studies, mice were sacrificed when their tumors reached 2500 mm^3 in size or earlier if tumors began to ulcerate.
# Doses were 50-100 μg every 3-5 days. […] In addition to measuring mean tumor volume (FIG. 4), photographs of the mice from each treatment group were also taken to show the differences in tumor size and appearance at the end of the study.
# [5] = system: Human tumor xenografts (NCI-H358 NSCLC, NCI-H460 NSCLC, HT29 colon adenocarcinoma, L540 Hodgkin's lymphoma); test: Immunohistochemistry on frozen sections of human tumor xenografts; type: binding, mouse; design: key: −, negative; +/−, very weak; 1+, weak; 2+, moderate; 3+, strong; 4+, very strong; conditions: acetone fixed frozen sections; 2C3 and 12D7 at 20 μg/ml, others 5-10 μg/ml
# Method: as §1, §2
# The immunohistochemical reactivity of 3E7, GV39M, and 11B5 on NCI-H358 human NSCLC xenografts was determined and compared with control antibodies (an IgG of irrelevant specificity; A-20, a rabbit anti-VEGF antibody; and MECA 32, a rat anti-mouse endothelial cell antibody). 8 μm frozen sections of NCI-H358 human NSCLC grown in SCID mice were stained using an indirect immunoperoxidase technique and were counterstained with hematoxylin.
# [6] = system: mouse VEGF in mouse 3LL Lewis Lung carcinoma tumor sections; test: Immunohistochemistry on mouse 3LL tumor sections; type: binding; design: key: −, negative; +/−, very weak; 1+, weak; 2+, moderate; 3+, strong; 4+, very strong; conditions: acetone fixed frozen sections; 2C3 and 12D7 at 20 μg/ml, others 5-10 μg/ml
# mouse VEGF in mouse 3LL Lewis Lung carcinoma tumor sections, sequence (Q00731 205-317 limits assumed): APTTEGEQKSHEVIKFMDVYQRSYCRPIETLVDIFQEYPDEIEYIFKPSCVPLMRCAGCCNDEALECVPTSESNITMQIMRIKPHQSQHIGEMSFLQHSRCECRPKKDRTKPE
# Method: as §2
# (§4) Tumors examined through immunohistochemistry were human tumors of various types from cancer patients, transplantable human tumor xenografts of various types grown in mice, guinea pig Line 10 tumor grown in guinea pig, and mouse 3LL tumor grown in mice (see legend to Table 3 for details).
# HT1080 fibrosarcoma = test: In vivo tumor therapy of established HT1080 xenografts; design: species or system mouse; conditions: 100 μg every two days
# Method: as §3
# Human tumors (various) = test: Immunohistochemistry on frozen sections of human tumors; type: binding; design: key: −, negative; +/−, very weak; 1+, weak; 2+, moderate; 3+, strong; 4+, very strong; conditions: acetone fixed frozen sections; 2C3 and 12D7 at 20 μg/ml, others 5-10 μg/ml
# Method: as §2, §4
# NCI-H358 NSCLC = test: In vivo tumor growth inhibition, newly implanted NCI-H358; design: species or system mouse
# Method: (§5) Nu/nu mice were injected subcutaneously with either 1×10^7 NCI-H358 NSCLC cells or 5×10^6 A673 rhabdomyosarcoma cells on day 0. […] The tumors were then measured twice per wk for a period of approximately six wk for the NCI-H358 bearing mice and four wk for the A673 bearing mice. Tumor volume was calculated according to the formula: volume=L×W×H, where L=length, W=width, H=height.
# VEGFR2 (KDR/Flk-1) = test: ELISA of VEGF binding to VEGFR2-coated wells; design: species or system mouse
# A673 rhabdomyosarcoma = test: In vivo tumor growth inhibition, newly implanted A673; design: species or system mouse; conditions: 100 μg i.p. 2 times per wk from day 1, nu/nu mice; controls approximately 1000 mm^3
# Method: as §5
# [7] = system: NCI-H358 NSCLC and HT29 colon adenocarcinoma xenografts; test: In vivo localization to human tumor xenografts in mice; design: species or system mouse; key to Immunohistochemical Reactivity Heart / Immunohistochemical Reactivity Lung / Immunohistochemical Reactivity Liver / Immunohistochemical Reactivity Kidney / Immunohistochemical Reactivity Intestine / Immunohistochemical Reactivity Spleen / Immunohistochemical Reactivity Tumor: −, negative; +/−, very weak; 1+, weak; 2+, moderate; 3+, strong; 4+, very strong
# Method: Tumors were grown subcutaneously in immunocompromised mice (NCI-H358 NSCLC in nu/nu mice and HT29 colon adenocarcinoma in SCID mice) until the tumor volume was approximately 1 cm^3. 100 μg of unlabeled antibody for studies using SCID mice, or 100 μg of biotinylated antibody for studies using nude mice, was injected intravenously via a tail vein. Twenty four hours later, the mice were anesthetized, perfused with PBS, and tumor and organs including heart, lungs, liver, kidneys, intestines and spleen were collected and snap frozen in liquid nitrogen.
# The tumor and organs from each mouse were sectioned on a cryostat and stained for antibody immunohistochemically as above, with the exception that sections from the nude mice were developed using peroxidase labeled streptavidin-biotin complex (Dako, Carpinteria, Calif.) and the sections from the SCID mice were developed using two peroxidase-conjugated secondary antibodies, a goat anti-mouse IgG+IgM followed by a rabbit anti-goat IgG.
# 100 μg of GV39M and 3E7 or isotype-matched control IgG were injected into SCID mice bearing HT29 human colonic adenocarcinomas. Twenty-four hours later, the mice were sacrificed, exsanguinated and the tumors and tissues were removed.
# KDR on ABAE cells = test: 125I-VEGF binding studies on KDR expressing endothelial cells; type: cell-based, bovine
# [8] = tumor-bearing mice, antibody intravenously 24 hours prior to sacrifice
substance,measurement,setting,value
2C3-GUS [Clone 2C3-GUS],localization after i.v. injection,"[1]; SCID mice, subcutaneous NCI-H358",specifically localized to tumor vasculature and surrounding tumor stroma
same,staining of normal tissues,"[1]; mouse, in vivo, sc",unstained
same,t½ α of clearance from the blood,[2],about 6 hours
same,t½ β of clearance from the blood,[2],about 25 hours
2C3 F(ab′)2: F(ab′)2 of 2C3,blocking of binding of VEGF to VEGFR2/Fc in solution,VEGFR2 (KDR/Fc),blocked
"2C3: anti-VEGF monoclonal antibody, IgG2a k, hybridoma ATCC PTA 1595; blocks VEGF binding to VEGFR2 but not VEGFR1 [Clone 2C3]",Endothelial Cell Staining Guinea Pig Tumor (Line 10),[3],−
same,growth of established A673 rhabdomyosarcoma and LS174T colon adenocarcinoma tumors,[4],significantly slowed
same,Blocks VEGF from binding to VEGFR1,VEGFR1 (FLT-1),No
same,mean tumor volume after approximately 14 wk of treatment,"NCI-H358 NSCLC tumors; established NCI-H358, 100 μg, prolonged treatment",84 mm^3
same,"mean tumor volume at the end of the study, % of the initial mean tumor volume","NCI-H358 NSCLC tumors; established NCI-H358, 50-100 μg i.p. every 3-5 days, approximately 10 weeks",30%
same,decrease in mean tumor volume,"NCI-H358 NSCLC tumors; established NCI-H358, approximately 14 wk",approximately 80%
same,mean tumor weight,"NCI-H358 NSCLC tumors; established NCI-H358, end of the study (day 116)",0.054 g
same,Endothelial Cell Staining Xenograft (various),[5],−
same,Endothelial Cell Staining Mouse Tumor (3LL),[6],−
same,growth of HT1080 tumors,HT1080 fibrosarcoma,arrested the growth
same,Endothelial Cell Staining Hu Tumor (various),Human tumors (various),−
same,"final tumor volume, NCI-H358 NSCLC","NCI-H358 NSCLC; 100 μg i.p. 2 times per wk from day 1, nu/nu mice, controls approximately 1000 mm^3",approximately 150 mm^3
same,prevention of tumor growth at lower doses,"NCI-H358 NSCLC; 10 or 1 μg twice per wk, NCI-H358 and A673",less effective
same,Blocks VEGF from binding to VEGFR2,VEGFR2 (KDR/Flk-1),Yes
same,effect on VEGF binding to VEGFR2 in ELISA,VEGFR2 (KDR/Flk-1); 100-1000 fold excess,blocked
same,amount VEGF that bound to VEGFR2-coated ELISA wells maintained at,VEGFR2 (KDR/Flk-1); 100 fold molar excess over VEGF,about 92%
same,"amount VEGF that bound to VEGFR2-coated wells, % of amount bound in absence of antibody",VEGFR2 (KDR/Flk-1); 1000-fold molar excess over VEGF (1 nM),~19%
same,"final tumor volume, A673 rhabdomyosarcoma",A673 rhabdomyosarcoma,approximately 150 mm^3
same,Immunohistochemical Reactivity Tumor,"[7]; 2C3: NCI-H358 in nu/nu mice, 3E7, GV39M: HT29 in SCID mice, 24 hours after i.v.",3+
same,localization in the HT29 human tumor model,[7]; after i.v. injection,localized strongly to the connective tissue
same,Immunohistochemical Reactivity Heart,[7]; [8],−
same,Immunohistochemical Reactivity Intestine,[7]; [8],−
same,Immunohistochemical Reactivity Kidney,[7]; [8],−
same,Immunohistochemical Reactivity Liver,[7]; [8],−
same,Immunohistochemical Reactivity Lung,[7]; [8],−
same,Immunohistochemical Reactivity Spleen,[7]; [8],−
same,blocking of 125I-VEGF binding to KDR,KDR on ABAE cells,blocks VEGF from binding to KDR in a concentration dependent manner
